The values that follow come from US7718681B2, “5-(1,3-Diaryl-1H-pyrazol-4-ylmethylene)-thiazolidine,2,4-dione derivatives useful as anticancer agent” (Korea Research Institute of Chemical Technology, priority 2005, dated 2010).

For data set [1], the system named is HT29. Kind of data set: Cell cytotoxicity assay (SRB), HT29. Type of data set: cell-based. The following applies: Homo sapiens, HT-29, HT29, 10 μM, 48 hours, read-out: % of inhibition of growth of cancer cells. As to the method:
(§1) A549, HT29 and MCF-7 were used to measure anticancer activity. The cancer cells were those distributed from the National Cancer Institute (NCI) of the U.S. and cultured by the Korea Research Institute of Chemical Technology (KRICT), which had been derived from human tumor cell lines. The cells were cultured in a 5% CO2 incubator at 37° C. with constant temperature and humidity using RPMI 1640 culture medium fortified with 5% fetal bovine serum. Subculturing was carried out once in 3-4 days. A PBS (phosphate buffered saline) solution in which 0.25% trypsin and […] trans-1,2-diaminocyclohexane-N,N,N,N-tetraacetic acid (CDTA) were dissolved was used to separate the cells.
(§2) The SRB (sulforhodamine B) assay method, which was developed in 1989 to measure in vitro anticancer activity of drugs by the NCI, was used. The cells were separated using a trypsin-CDTA solution and were plated on a 96-well microplate (Falcon), about 2×10^3 cells per each well. The cells were cultured in a CO2 incubator for 24 hours and were attached to the bottom of the plate. After removing the culture medium using an aspirator, each of Compound No. 78, Compound No. 79 and Doxorubicin, a control drug, diluted in a culture medium was added to the wells containing the cells, with a log dose of 6 equivalents, 3 times, […] at one time. The cells were cultured for 48 more hours. If required, dimethylsulfoxide (DMSO) was used to dissolve the compounds. The diluted compound solutions were filtered through a […] filter before being added to the cells. […] Then, absorbance was measured at 520 nm using a microplate reader. In order to quantify the anticancer effect of the compounds, number of cells was counted for the cases where the drug was added (Tz), the cells were cultured for 48 hours with a culture medium containing no drug (C) and the cells were cultured for 48 hours with a culture medium containing the drug (T). Anticancer activity was calculated by the following equations 1 and 2. […]

Data set [2] concerns MCF-7. Kind of data set: Cell cytotoxicity assay (SRB), MCF-7. Type of data set: cell-based. The following applies: Homo sapiens, MCF7, MCF-7, 10 μM, 48 hours, read-out: % of inhibition of growth of cancer cells. As for the experimental part:
as §1, §2

The target in data set [3] is T1, CDC25B (Homo sapiens, UniProt P30305).
T1 construct: Catalytic domain of CDC25B (aa 378-566) was expressed and produced in E. coli into a GST fusion protein; GST; made in house; host or cells: E. coli
T1 sequence (P30305 378-566 isoform P30305-2): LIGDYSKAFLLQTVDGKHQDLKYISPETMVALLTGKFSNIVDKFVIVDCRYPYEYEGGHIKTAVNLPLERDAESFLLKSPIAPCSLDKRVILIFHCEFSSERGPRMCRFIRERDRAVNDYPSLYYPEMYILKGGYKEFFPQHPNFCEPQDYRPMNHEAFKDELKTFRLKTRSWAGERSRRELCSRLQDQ
Kind of data set: CDC25B enzyme assay. It counts as biochemical. The following applies: catalytic domain of CDC25B (aa 378-566) GST fusion, 20 μm FDP, 1 hour at room temperature, fluorescence. As for the experimental part:
Catalytic domain of CDC25B (aa 378-566) was expressed and produced in E. coli into a GST fusion protein, which was used as zymogen. Enzyme assay was carried out on a 96-well plate, with the final reaction volume per well adjusted to 200 μL. 170 μL of a buffer solution (30 mM Tris buffer, pH 8.5, 75 mM NaCl, 0.67 mM EDTA, 1 mM DTT), 20 μL (0.2 μg) of CDC25B enzyme and 10 μL of the test compound dissolved in DMSO were added, so that the final concentration became 1 μg/mL CDC25B and 20 μm FDP. Measurement was made after culturing at room temperature for 1 hour. FDP and DTT were added to the buffer solution just before assay, so that a fresh status could be maintained. After 1 hour of culturing, fluorescence resultant from the enzymatic reaction was measured at 485 nm (excitation) and 538 nm (emission).
The screened compound was treated to a final concentration of 1, 2, 5 and 10 μm to obtain the % inhibition value. If the inhibitory effect was low (less than 50% at […]), the concentration of the compound was increased to 20 μm and the % inhibition value and the IC50 value were obtained.

Data set [4] relates to C33A human uterine cancer cell line.
Description: In order to verify the in vivo anticancer effect of the compounds of the present invention, C33A human uterine cancer cell line was subcutaneously injected at the abdominal walls of 6- to 8-week-old male nude mice. […] For a positive control, cisplatin (4 mg/kg), which is widely used as an anticancer agent in clinical tests, was used. The dosage given was 0.25 mL per each administration once a day for a period of 7 consecutive days. The volume of the tumor was calculated by the following equation 3, by measuring the long and short axes with a caliper. Tumor volume=(Short axis,mm)^2×(Long axis,mm)×0.523 Equation 3
The subject of data set [5] is A549. As to the kind of experiment: Cell cytotoxicity assay (SRB), A549. Type of data set: cell-based. The following applies: Homo sapiens, A549, 10 μM, 48 hours, read-out: % of inhibition of growth of cancer cells. As to the method: as §1, §2

In general, inhibition refers to the change of the read-out against control, counted positive when it falls. As a reminder, the IC50 is the point on the concentration scale where inhibition reaches its midpoint. With `CCOc1ccc(-c2nn(-c3ccccc3)cc2C=C2SC(=O)N(C)C2=O)cc1Br` [Compound 78, 5-[3-(3-bromo-4-ethoxy-phenyl)-1-phenyl-1H-pyrazol-4-ylmethylene]-3-methyl-thiazolidine-2,4-dione], the results for the inhibition at 10 µM in data set [1], in data set [2] and in data set [5] were 59.7%, 67.3% and 67.5%, respectively. The molecule also had an IC50 in data set [3] of 2260 nM. For the same molecule, the “anticancer activity (tumor volume)” value in data set [4] (C33A tumor in male nude mice, into the abdominal cavity once a day for 7 days, FIG. 1, cisplatin 4 mg/kg positive control) is reported as “comparable to that of cisplatin”. Besides, the “negative responses (reduced motion, lack of appetite)” value in data set [4] (mouse, in vivo) is “did not shows any negative responses”.
Turning to `CCOc1ccc(-c2nn(-c3ccccc3)cc2C=C2SC(=O)N(CC)C2=O)cc1Br` [Compound 79, 5-[3-(3-bromo-4-ethoxy-phenyl)-1-phenyl-1H-pyrazol-4-ylmethylene]-3-ethyl-thiazolidine-2,4-dione], the inhibition at 10 µM was 82.4% in data set [1], 31.1% in data set [2] and 39.1% in data set [5]. For the same molecule, in data set [3], the half-inhibitory concentration (IC50) was found to be 1410 nM.
With `COc1cccc2c1C(=O)c1c(O)c3c(c(O)c1C2=O)C[C@@](O)(C(=O)CO)C[C@@H]3O[C@H]1C[C@H](N)[C@H](O)[C@H](C)O1` [Doxorubicin, reference compound], the figures for the inhibition at 10 µM in data set [1], in data set [2] and in data set [5] were 51.1%, 63.2% and 39%, respectively.
